From publication PMC4200786, “Synthesis and Characterization of New Bivalent Agents as Melatonin- and Histamine H3-Ligands” (International Journal of Molecular Sciences, 2014) come the findings set out here.

The target of test [1] is T1, human histamine H3 receptor (Homo sapiens, UniProt Q9Y5N1).
T1 construct: expressed in transfected cells; host or cells: SK-N-MC cells
The test can be described thus: Human histamine H3 receptor binding assay, [3H](R)-α-methylhistamine displacement. Conditions: SK-N-MC cell homogenates expressing hH3R; 0.5 nM [3H](R)-α-methylhistamine; mean ± SEM of three experiments. As for the experimental part: Homogenates of SK–N–MC cells expressing human histamine H3 receptors (hH3Rs) were used to determine affinity values of the new compounds in radioligand displacement studies according to Lovenberg et al.’s method. SK–N–MC cells in confluent culture plates were harvested using trypsin digestion and then centrifuged for 5 min at 1100 rpm. Pellets, either fresh or stored at −80 °C until the moment of use, were mechanically homogenized with Potter-Elvhejem in 20 mM Tris-HCl/0.5 mM EDTA. Supernatants from a 2000 rpm spin (10 min) were collected and re-centrifuged at 10,000 rpm for 30 min. Pellets were re-homogenized in 50 mM Tris-HCl/5 mM EDTA (pH 7.4). Membranes were incubated for 60 min at room temperature with 0.5 nM [^3H](R)-α-methylhistamine in 50 mM Tris-HCl/5 mM EDTA (pH 7.4) with or without competing ligands. Each concentration was tested in triplicate. Incubation was terminated by rapid filtration over Millipore (Darmstadt, Germany) AAWPO2500 filters followed by two washes with ice-cold buffer (50 mM Tris-HCl/5 mM EDTA). Filters retained radioactivity was determined by liquid scintillation counting (Ultima Gold XR Perkin Elmer (Waltham, MA, USA) scintillation liquid, Tri-Carb 2810 TR Perkin Elmer (Waltham, MA, USA) Liquid Scintillation Analyzer). […] Data are expressed as mean ± SEM of three independent experiments.

Test [2] deals with T2, human MT1 receptor (Homo sapiens, UniProt P48039).
T2 construct: expressed in transfected cells; host or cells: NIH3T3 fibroblast cells
T2 sequence (P48039 whole entry): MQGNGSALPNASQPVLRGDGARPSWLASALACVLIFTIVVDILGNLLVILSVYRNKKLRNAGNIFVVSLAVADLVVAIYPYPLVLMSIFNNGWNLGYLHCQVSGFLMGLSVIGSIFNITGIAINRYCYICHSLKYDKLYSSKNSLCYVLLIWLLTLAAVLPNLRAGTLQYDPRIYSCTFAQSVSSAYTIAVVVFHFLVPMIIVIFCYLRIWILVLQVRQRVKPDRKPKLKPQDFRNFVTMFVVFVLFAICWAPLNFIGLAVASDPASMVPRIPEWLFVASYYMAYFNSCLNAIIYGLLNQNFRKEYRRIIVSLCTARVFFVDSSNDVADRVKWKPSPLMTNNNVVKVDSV
Kind of test: Human MT1 melatonin receptor binding assay, 2-[125I]iodomelatonin competition. Conditions: cloned human MT1 in NIH3T3 cell membranes; 2-[125I]iodomelatonin 100 pM; N.A. = Not active up to 100 μM. The procedure: (§1) Binding affinities were determined using 2-[^125I]iodomelatonin as the labeled ligand in competition experiments with cloned human MT1 and MT2 receptors expressed in NIH3T3 […] fibroblast cells. The characterization of NIH3T3 MT1 and MT2 cells was already described in detail. Membranes were incubated for 90 min at 37 °C in binding buffer (50 mM Tris/HCl, pH 7.4). The final membrane concentration was 5–10 μg of protein per tube. The membrane protein level was determined in accordance with a previously reported method. 2-[^125I]Iodomelatonin (100 pM) and different concentrations of the tested compounds were incubated with the receptor preparation for 90 min at 37 °C. […] The pKi values were calculated from the IC50 values according to the Cheng–Prusoff equation [51]. The pKi values are the mean of at least three independent determinations performed in duplicate.

Test [3] concerns the target T3, human MT2 receptor (Homo sapiens, UniProt P49286).
T3 construct: expressed in transfected cells; host or cells: NIH3T3 fibroblast cells
T3 sequence (P49286 1-362): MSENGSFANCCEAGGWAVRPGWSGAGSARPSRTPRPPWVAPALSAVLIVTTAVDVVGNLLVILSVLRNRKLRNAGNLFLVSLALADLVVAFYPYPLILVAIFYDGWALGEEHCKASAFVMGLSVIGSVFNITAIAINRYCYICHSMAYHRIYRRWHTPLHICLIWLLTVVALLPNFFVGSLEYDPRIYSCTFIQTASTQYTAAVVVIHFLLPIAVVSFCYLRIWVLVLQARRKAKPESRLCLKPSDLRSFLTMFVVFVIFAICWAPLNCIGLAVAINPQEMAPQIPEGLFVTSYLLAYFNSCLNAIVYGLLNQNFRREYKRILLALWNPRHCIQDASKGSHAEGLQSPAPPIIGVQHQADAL
The test can be described thus: Human MT2 melatonin receptor binding assay, 2-[125I]iodomelatonin competition. The following applies: cloned human MT2 in NIH3T3 cell membranes; 2-[125I]iodomelatonin 100 pM; N.A. = Not active up to 100 μM. As for the experimental part:
as §1

The target of test [4] is T2, human MT1 receptor. The test can be described thus: [35S]GTPγS binding assay, human MT1 receptor. Format: biochemical. As for the experimental part: (§2) To determine the functional activity of compound 14d at MT1 and MT2 receptor subtypes, [^35S]GTPγS binding assays in NIH3T3 cells expressing human-cloned MT1 or MT2 receptors were performed. The amount of bound [^35S]GTPγS is proportional to the level of the analog-induced G protein activation and is related to the intrinsic activity of the compound under study. The detailed description and validation of this method were reported elsewhere. Membranes (15–25 μg of protein, final incubation volume 100 μL) were incubated at 30 °C for 30 min in the presence and absence 14d, in assay buffer consisting of [^35S]GTPγS (0.3–0.5 nM), GDP (50 μM), NaCl (100 mM), and MgCl2 (3 mM). Nonspecific binding was defined using GTPγS (10 μM). […] Basal stimulation is the amount of [^35S]GTPγS specifically bound in the absence of compounds and was taken as 100%. […] All of the measurements were performed in triplicate.

The target in test [5] is T3, human MT2 receptor. Kind of test: [35S]GTPγS binding assay, human MT2 receptor. It counts as biochemical. The procedure:
as §2

T1 sequence (Q9Y5N1 whole entry): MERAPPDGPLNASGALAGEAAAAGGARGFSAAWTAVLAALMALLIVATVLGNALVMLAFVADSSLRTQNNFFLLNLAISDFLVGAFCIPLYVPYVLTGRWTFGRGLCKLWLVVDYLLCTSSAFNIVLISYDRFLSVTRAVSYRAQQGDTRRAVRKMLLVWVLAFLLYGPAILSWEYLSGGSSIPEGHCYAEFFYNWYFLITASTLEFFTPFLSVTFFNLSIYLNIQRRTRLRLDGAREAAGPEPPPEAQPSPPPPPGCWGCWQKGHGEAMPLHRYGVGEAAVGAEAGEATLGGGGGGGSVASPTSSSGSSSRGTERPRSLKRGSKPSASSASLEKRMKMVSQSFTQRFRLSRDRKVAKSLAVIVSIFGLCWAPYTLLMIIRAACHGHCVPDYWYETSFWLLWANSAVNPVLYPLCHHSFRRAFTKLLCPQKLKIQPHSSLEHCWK

With “N-[2-({3-[3-(1H-Imidazol-4-yl)propoxy]phenyl}methylamino)ethyl]acetamide [Compound 14a]”, in test [1], the “hH3 pKi” value is 5.91 ± 0.01.

Consider “N-[2-({3-[5-(1H-Imidazol-4-yl)pentyloxy]phenyl}methylamino)ethyl]acetamide [Compound 14c]”, for which the “hMT1 pKi” value on human MT1 receptor [2] came out at 6.09 ± 0.12. Moreover, the “hH3 pKi” value in test [1] turned out to be 6.28 ± 0.03. For the same substance, the “hMT2 pKi” value at human MT2 receptor [3] is recorded as 6.28 ± 0.10.

Turning to “N-[2-({3-[6-(1H-Imidazol-4-yl)hexyloxy]phenyl}methylamino)ethyl]acetamide [Compound 14d]”, on human MT1 receptor [2], the “hMT1 pKi” value worked out at 6.79 ± 0.01. Further, the “functional behaviour at MT1 receptor in the GTPγS assay” value on human MT1 receptor [4] (GTPγS assay) was “antagonist”. Also, the “hMT1 IAR (relative intrinsic activity)” value at human MT1 receptor [4] ([35S]GTPγS binding, NIH3T3 cells expressing human MT1, relative to melatonin) is −0.26 ± 0.09. The “hH3 pKi” value in test [1] is reported as 6.22 ± 0.09. The “functional behaviour at MT2 receptor in the GTPγS assay” value on human MT2 receptor [5] (GTPγS assay) was “antagonist”. The “hMT2 IAR (relative intrinsic activity)” value on human MT2 receptor [5] ([35S]GTPγS binding, NIH3T3 cells expressing human MT2, relative to melatonin) is given as −0.35 ± 0.19. Besides, the “hMT2 pKi” value on human MT2 receptor [3] was determined as 6.76 ± 0.06.
